The text below walks through data of patent US8829007B2 (priority 2009, dated 2014).

The test system of test [1] is A/PR/8/34 influenza virus. The experiment in a line: microbe, parasite or virus in culture. In kind it is cell-based.
Test [2] deals with influenza A virus (A/PR/8/34). Description: microbe, parasite or virus in culture. It is filed as cell-based.
[3] abbreviates: Influenza A virus, PR/8, MDCK, MDCK cells infected with A/PR/8/34, bDNA viral RNA, read-out: EC50 (mean all).
Setting [4] is: Influenza A virus, PR/8, MDCK, MDCK cells infected with A/PR/8/34, cell protection (CPE), read-out: IC50 (mean all).
The mark [5] stands for this setting: Influenza A virus, PR/8, MDCK, bDNA assay, A/PR/8/34 influenza virus replication in MDCK cells, class symbols, read-out: EC50 (mean all).
Where [6] appears, read: Influenza A virus, PR/8, MDCK, CPE assay, A/PR/8/34 infected MDCK cells, class symbols, read-out: IC50 (mean all).
Where [7] appears, read: Influenza A virus, PR/8, MDCK, MDCK cells infected with A/PR/8/34, replication of influenza virus (viral RNA, bDNA), class symbols, read-out: EC50 (mean all).
The mark [8] stands for this setting: Influenza A virus, PR/8, MDCK, MDCK cells infected with A/PR/8/34, survival of infected cells, class symbols, read-out: IC50 (mean all).
The mark [9] stands for this setting: mean all, bDNA viral RNA in MDCK cells infected with A/PR/8/34, read-out: EC50.
Setting [10] is: mean all, MDCK cells infected with A/PR/8/34, cell protection (CPE), read-out: IC50.
[11] abbreviates: Influenza A virus, PR/8, MDCK, mean all, A/PR/8/34 influenza virus in MDCK cells, bDNA assay, read-out: EC50.
Where [12] appears, read: Influenza A virus, PR/8, MDCK, mean all, A/PR/8/34 infected MDCK cells, CPE assay, read-out: IC50.

Structures can show the parent of a compound that is named as a salt. Where two headings read alike, the source gives them in different places.

The term IC50 denotes the concentration that inhibits the measured activity by half.

Turning to `N#CC1(C(=O)N[C@@H]2CCC[C@H](Nc3nc(-c4c[nH]c5ncc(F)cc45)ncc3F)C2)CC1` [Compound 871], in test [1] (Influenza A virus, PR/8, mean all, A/PR/8/34 influenza virus replication, bDNA, read-out: EC50), the EC50 was < 5 µM. Moreover, in test [2] (Influenza A virus, PR/8, MDCK, mean all, A/PR/8/34 infected MDCK cells, cell protection (CPE), read-out: IC50), the IC50 was < 5 µM.
Take `CCC(=O)N1CCCC[C@@H]1CNc1nc(-c2c[nH]c3ncc(Cl)cc23)ncc1F` [Compound 208, (R)-1-(2-((2-(5-chloro-1H-pyrrolo[2,3-b]pyridin-3-yl)-5-fluoropyrimidin-4-ylamino)methyl)piperidin-1-yl)propan-1-one]: the EC50 in test [1] (setting [3]) was < 5 µM. The IC50 in test [2] (setting [4]) is < 5 µM.
Take `CC(C)(CO)C(=O)N[C@@H]1CCC[C@H](Nc2nc(-c3c[nH]c4ncc(Cl)cc34)ncc2F)C1` [Compound 650, N-[(1R,3S)-3-[[2-(5-chloro-1H-pyrrolo[2,3-b]pyridin-3-yl)-5-fluoro-pyrimidin-4-yl]amino]cyclohexyl]-3-hydroxy-2,2-dimethyl-propanamide hydrochloride]: the EC50 in test [1] (setting [5]) was < 5 µM. In addition, the IC50 in test [2] (setting [6]) was < 5 µM.
Regarding `C=CCOC(=O)N1CCC[C@H](CNc2nc(-c3c[nH]c4ncc(Cl)cc34)ncc2F)C1` [Compound 119, (R)-allyl 3-((2-(5-chloro-1H-pyrrolo[2,3-b]pyridin-3-yl)-5-fluoropyrimidin-4-ylamino)methyl)piperidine-1-carboxylate], the EC50 in test [1] (setting [3]) is < 5 µM. The IC50 in test [2] (setting [4]) is < 5 µM.
With `CC1(O)CCCCC1Nc1nc(-c2c[nH]c3ncc(Cl)cc23)ncc1F` (stereo not drawn) [Compound 562, 2-(2-(5-chloro-1H-pyrrolo[2,3-b]pyridin-3-yl)-5-fluoropyrimidin-4-ylamino)-1-methylcyclohexanol], in test [1] (setting [7]), the EC50 was < 5 µM. In test [2] (setting [8]), the IC50 is > 10 µM.
Take `C#CCOC(=O)N1CCC[C@H](CNc2nc(-c3c[nH]c4ncc(Cl)cc34)ncc2F)C1` [Compound 122, (R)-prop-2-ynyl 3-((2-(5-chloro-1H-pyrrolo[2,3-b]pyridin-3-yl)-5-fluoropyrimidin-4-ylamino)methyl)piperidine-1-carboxylate]: in test [1] (setting [3]), the EC50 was < 5 µM. For the same molecule, the IC50 in test [2] (setting [4]) was < 5 µM.
On to `O=S(=O)(c1ccccc1F)N1CCC[C@H](CNc2nc(-c3c[nH]c4ncc(Cl)cc34)ncc2F)C1` [Compound 90, (R)-2-(5-chloro-1H-pyrrolo[2,3-b]pyridin-3-yl)-5-fluoro-N-((1-(2-fluorophenylsulfonyl)piperidin-3-yl)methyl)pyrimidin-4-amine], for which, in test [1] (setting [3]), the EC50 is < 5 µM. Besides, the half-inhibitory concentration (IC50) in test [2] (setting [4]) was < 5 µM.
In the case of `CCC(=O)NC1CCCC(Nc2nc(-c3c[nH]c4ncc(Cl)cc34)ncc2F)C1` (stereo not drawn) [Compound 683], the EC50 in test [1] (setting [9]) is < 5 µM. In addition, the IC50 in test [2] (setting [10]) was < 5 µM.
In the case of `CN(C)C(=O)C(C)(C)N1CCC[C@H](Nc2nc(-c3c[nH]c4ncc(Cl)cc34)ncc2F)C1` [Compound 600], the EC50 in test [1] (setting [5]) was < 5 µM. Moreover, the IC50 in test [2] (setting [6]) was < 5 µM.
Regarding `COc1cccc(S(=O)(=O)N2CCC[C@H](CNc3nc(-c4c[nH]c5ncc(Cl)cc45)ncc3F)C2)c1` [Compound 62, (R)-2-(5-chloro-1H-pyrrolo[2,3-b]pyridin-3-yl)-5-fluoro-N-((1-(3-methoxyphenylsulfonyl)piperidin-3-yl)methyl)pyrimidin-4-amine], the EC50 in test [1] (setting [3]) is < 5 µM. Further, the IC50 in test [2] (setting [4]) is < 5 µM.
Turning to `O=C(c1cccs1)N1CCC[C@H](CNc2nc(-c3c[nH]c4ncc(Cl)cc34)ncc2F)C1` [Compound 97, (R)-(3-((2-(5-chloro-1H-pyrrolo[2,3-b]pyridin-3-yl)-5-fluoropyrimidin-4-ylamino)methyl)piperidin-1-yl)(thiophen-2-yl)methanone], the EC50 in test [1] (setting [3]) was < 5 µM. Further, the IC50 in test [2] (setting [4]) is < 5 µM.
On to `O=C(Cc1cccnc1)N1CCC[C@@H](CNc2nc(-c3c[nH]c4ncc(Cl)cc34)ncc2F)C1` [Compound 47, (S)-1-(3-((2-(5-chloro-1H-pyrrolo[2,3-b]pyridin-3-yl)-5-fluoropyrimidin-4-ylamino)methyl)piperidin-1-yl)-2-(pyridin-3-yl)ethanone], for which the EC50 in test [1] (setting [3]) is < 5 µM. For the same molecule, in test [2] (setting [4]), the half-maximal inhibitory concentration (IC50) is < 5 µM.
In the case of `N#CCC(=O)NC1CCCC(Nc2nc(-c3c[nH]c4ncc(Cl)cc34)ncc2F)C1` (stereo not drawn) [Compound 724], the EC50 in test [1] (setting [9]) is < 5 µM. In addition, the half-maximal inhibitory concentration (IC50) in test [2] (setting [10]) is < 5 µM.
In the case of `N#CC[C@]1(O)CCC[C@H](Nc2nc(-c3c[nH]c4ncc(F)cc34)ncc2F)C1` [Compound 979, 2-((1S,3S)-3-(5-fluoro-2-(5-fluoro-1H-pyrrolo[2,3-b]pyridin-3-yl)pyrimidin-4-ylamino)-1-hydroxycyclohexyl)ethanenitrile], in test [1] (Influenza A virus, PR/8, 30 h, HA(−) 30 hr, A/PR/8, bDNA, mean all, read-out: Cell Influenza HA(−) 30 hr A/PR/8 bDNA:bDNA EC50 uM(Mean (All))), the EC50 was < 5 µM. Besides, the IC50 in test [2] (Influenza A virus, PR/8, MDCK, MDCK cells, A/PR/8/34, ATP readout, mean all, read-out: Cell Flu, MDCK protection, ATP (All: IC50: uM)(Mean (All))) is < 5 µM.
For `CN(C)C(=O)N[C@H]1CCC[C@@H](Nc2nc(-c3c[nH]c4ncc(Cl)cc34)ncc2F)C1` (relative stereo) [Compound 456, 3-[cis-3-[[2-(5-chloro-1H-pyrrolo[2,3-b]pyridin-3-yl)-5-fluoro-pyrimidin-4-yl]amino]cyclohexyl]-1,1-dimethyl-urea], in test [1] (setting [11]), the EC50 was < 5 µM. Moreover, the IC50 in test [2] (setting [12]) is < 5 µM.
Take `COCCC(=O)N1CCC[C@H](CNc2nc(-c3c[nH]c4ncc(Cl)cc34)ncc2F)C1` [Compound 327, (R)-1-(3-((2-(5-chloro-1H-pyrrolo[2,3-b]pyridin-3-yl)-5-fluoropyrimidin-4-ylamino)methyl)piperidin-1-yl)-3-methoxypropan-1-one]: in test [1] (setting [11]), the EC50 is < 5 µM. Also, the IC50 in test [2] (setting [12]) was < 5 µM.
Turning to `O=C(O)[C@H]1CC[C@@H](Nc2nc(-c3c[nH]c4ncc(Cl)cc34)ncc2F)C1` [Compound 565], the EC50 in test [1] (setting [7]) is < 5 µM. In addition, in test [2] (setting [8]), the concentration for half-maximal inhibition (IC50) was in the range of 5 to 20 µM.
Take `O=C(c1cc(F)cc(F)c1)N1CCC[C@H](CNc2nc(-c3c[nH]c4ncc(Cl)cc34)ncc2F)C1` [Compound 86, (R)-(3-((2-(5-chloro-1H-pyrrolo[2,3-b]pyridin-3-yl)-5-fluoropyrimidin-4-ylamino)methyl)piperidin-1-yl)(3,5-difluorophenyl)methanone]: the EC50 in test [1] (setting [3]) is < 5 µM. Further, in test [2] (setting [4]), the IC50 was < 5 µM.
As to `O=C(c1cc2ccccc2s1)N1CCC[C@H](CNc2nc(-c3c[nH]c4ncc(Cl)cc34)ncc2F)C1` [Compound 107, (R)-benzo[b]thiophen-2-yl(3-((2-(5-chloro-1H-pyrrolo[2,3-b]pyridin-3-yl)-5-fluoropyrimidin-4-ylamino)methyl)piperidin-1-yl)methanone], the EC50 in test [1] (setting [3]) is < 5 µM. Besides, the IC50 in test [2] (setting [4]) is < 5 µM.
On to `O=C(N[C@@H]1CCC[C@H](Nc2nc(-c3c[nH]c4ncc(Cl)cc34)ncc2F)C1)C1CCOCC1` [Compound 636, N-[(1R,3S)-3-[[2-(5-chloro-1H-pyrrolo[2,3-b]pyridin-3-yl)-5-fluoro-pyrimidin-4-yl]amino]cyclohexyl]tetrahydropyran-4-carboxamide hydrochloride], for which, in test [1] (setting [5]), the EC50 was < 5 µM. The IC50 in test [2] (setting [6]) was < 5 µM.
`Cc1cccc(NC(=O)N2CCC[C@H](CNc3nc(-c4c[nH]c5ncc(Cl)cc45)ncc3F)C2)c1` [Compound 78, (R)-3-((2-(5-chloro-1H-pyrrolo[2,3-b]pyridin-3-yl)-5-fluoropyrimidin-4-ylamino)methyl)-N-m-tolylpiperidine-1-carboxamide]: the EC50 in test [1] (setting [3]) was < 5 µM. For the same molecule, the IC50 in test [2] (setting [4]) is < 5 µM.
